US20080161309A1, “Novel Compounds” (priority 2004, published 2008)
Structures can show the parent of a compound that is named as a salt. Where two headings read alike, the source gives them in different places.

What was measured:
[1] = target: T1, human serotonin transporter (hSERT) (Homo sapiens, UniProt P31645); assay: hSERT receptor binding, [125I]-RTI-55, HEK-293 membranes
T1 construct: expressed in transfected cells; host or cells: HEK-293, membranes
Description: Cell pastes of HEK-293 cells transfected with a human serotonin transporter cDNA were prepared. […] Aliquots of membranes (−2.5 mg/ml protein) were stored in liquid nitrogen until used.
The reaction was incubated and gently agitated for 90 minutes at room temperature, and terminated by removal of assay volume. […] Test compounds were run in duplicate, and specific binding was defined as the difference between binding in the presence and absence of 10 μM citalopram. Excel and GraphPad Prism software were used for data calculation and analysis. IC50 values were converted to Ki values using the Cheng-Prusoff equation.

[2] = tested on: capsaicin-induced mechanical allodynia; assay: Rat model of capsaicin-induced mechanical allodynia; assay type: in vivo; conditions: sc, read-out: % Inhibition of allodynia
Description: Compounds of the present invention may be assayed for their ability to treat fibromylagia—like pain in a rat model of capsaicin-induced mechanical allodynia (e.g., Sluka, K A, (2002) J of Neuroscience, 22(13): 5687-5693). For example, a rat model of capsaicin-induced mechanical allodynia) was be carried out as follows:
On day 0, male Sprague-Dawley rats (˜150 g) in the dark cycle were placed in suspended wire-bottom cages and allowed to acclimate for 0.5 hour in a darkened, quiet room. The day 0 paw withdrawal threshold (PWT) was determined on the left hind paw by Von Frey hair assessment using the Dixon up and down method. After assessment, the plantar muscle of the right hind paw was injected with 100 μl capsaicin (0.25% (w/v) in 10% ethanol, 10% Tween 80, in sterile saline). On day 6 the PWT of the left hindpaw (contralateral from injection site) was determined for each animal. Animals from the day 6 prereads with PWT≦11.7 g were considered allodynic responders and were regrouped so that each cage had similar mean PWT values. On day 7, responders were dosed subcutaneously with 10 mg compound/kg body weight, or with vehicle alone. The vehicle was phosphate buffered saline containing 2% Cremophor® EL (BASF). The contralateral PWT values were determined at 1 hour after the single dose, with the investigator blinded to the dosing scheme.
In addition, the day 6 PWT was subtracted from the day 0 PWT to give the baseline window of allodynia present in each animal.

[3] = target: T2, human norepinephrine transporter (hNET) (Homo sapiens, UniProt P23975); assay: hNET receptor binding, [125I]-RTI-55, HEK-293 membranes; conditions: Cheng-Prusoff, read-out: NET Ki
T2 construct: expressed in transfected cells; host or cells: HEK-293, membranes
T2 sequence (P23975 whole entry): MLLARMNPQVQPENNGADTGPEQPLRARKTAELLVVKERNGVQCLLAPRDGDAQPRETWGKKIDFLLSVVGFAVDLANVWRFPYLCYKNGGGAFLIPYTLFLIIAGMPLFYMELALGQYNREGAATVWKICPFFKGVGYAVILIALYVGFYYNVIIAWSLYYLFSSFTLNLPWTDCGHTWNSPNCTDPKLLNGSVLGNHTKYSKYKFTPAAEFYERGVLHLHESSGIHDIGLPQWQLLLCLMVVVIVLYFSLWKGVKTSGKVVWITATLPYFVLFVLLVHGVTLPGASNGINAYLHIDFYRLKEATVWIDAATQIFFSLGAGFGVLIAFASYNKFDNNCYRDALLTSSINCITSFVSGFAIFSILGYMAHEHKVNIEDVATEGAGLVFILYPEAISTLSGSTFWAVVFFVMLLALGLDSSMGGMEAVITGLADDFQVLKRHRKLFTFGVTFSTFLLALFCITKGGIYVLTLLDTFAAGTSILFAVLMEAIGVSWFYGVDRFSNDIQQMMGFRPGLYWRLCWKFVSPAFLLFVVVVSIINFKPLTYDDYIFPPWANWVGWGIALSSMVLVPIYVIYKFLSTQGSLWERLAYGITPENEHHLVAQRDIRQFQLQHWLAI
Description: Cell pastes of HEK-293 cells transfected with a human norepinephrine transporter cDNA were prepared. The cell pastes were resuspended in 400 to 700 ml of Krebs-HEPES assay buffer (25 mM HEPES, 122 mM NaCl, 3 mM KCl, 1.2 mM MgSO4, 1.3 mM CaCl2, and 11 mM glucose, pH 7.4) with a Polytron homogenizer at setting 7 for 30 seconds. Aliquots of membranes (5 mg/ml protein) were stored in liquid nitrogen until used.
The binding assay was set up in Beckman deep-well polypropylene plates with a total volume of 250 μl containing: drug (10^−5M to 10^−12M), cell membranes, and […] [^125I]-RTI-55 (Perkin Elmer, NEX-272; specific activity 2200 Ci/mmol). The reaction was incubated by gentle agitation for 90 minutes at room temperature and was terminated by filtration through Whatman GF/C filter plates using a Brandel 96-well plate harvester. Scintillation fluid (100 μl) was added to each well, and bound [^125I]-RTI-55 was determined using a Wallac Trilux Beta Plate Counter. Test compounds were run in duplicate, and specific binding was defined as the difference between binding in the presence and absence of 10 μM desipramine.
Excel and GraphPad Prism software were used for data calculation and analysis. IC50 values were converted to Ki values using the Cheng-Prusoff equation. The Ki values (nM) for the hNET are reported below in Table 1.

[4] = [125I]-RTI-55, HEK-293 membranes, Cheng-Prusoff, read-out: SERT Ki
[5] = male Sprague-Dawley rats, 10 mg/kg subcutaneously, PWT 1 hour after single dose, mean of eight animals, normalized for vehicle

T1 sequence (P31645 whole entry): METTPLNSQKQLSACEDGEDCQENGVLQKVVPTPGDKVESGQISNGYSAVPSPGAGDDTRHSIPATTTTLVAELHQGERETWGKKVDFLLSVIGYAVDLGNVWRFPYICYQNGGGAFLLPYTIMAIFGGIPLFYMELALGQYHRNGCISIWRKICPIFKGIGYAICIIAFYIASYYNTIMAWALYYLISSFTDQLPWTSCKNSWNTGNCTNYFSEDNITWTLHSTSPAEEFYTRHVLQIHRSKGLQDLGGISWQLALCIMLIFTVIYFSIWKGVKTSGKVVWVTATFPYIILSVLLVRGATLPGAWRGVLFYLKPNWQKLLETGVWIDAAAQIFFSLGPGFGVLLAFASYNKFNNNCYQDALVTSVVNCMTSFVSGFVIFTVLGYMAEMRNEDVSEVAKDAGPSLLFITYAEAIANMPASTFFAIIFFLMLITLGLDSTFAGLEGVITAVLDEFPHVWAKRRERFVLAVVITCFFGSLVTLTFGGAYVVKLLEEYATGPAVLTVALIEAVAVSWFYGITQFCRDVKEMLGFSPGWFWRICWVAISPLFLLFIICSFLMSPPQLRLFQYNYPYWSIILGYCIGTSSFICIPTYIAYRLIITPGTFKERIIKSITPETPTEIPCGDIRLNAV

| Ki [1, 4] [nM] | Ki [3] [nM] | Compound | inhibition in vivo at 10 mg/kg [2, 5] [%] | inhibition in vivo at 10 mg/kg ([2]; 1 h) [%] | Ki [1] [nM] |
| --- | --- | --- | --- | --- | --- |
| 126 | 7.3 | Fc1cccc([C@H](Oc2cc(F)ccc2Cl)[C@@H]2CNCCO2)c1 [Example 41, (2S)-2-[(1S)-(2-Chloro-5-fluorophenoxy)(3-fluorophenyl)methyl] morpholine hydrochloride] | 21.1 | – | – |
| 80 | 16.5 | Fc1cccc([C@H](Oc2cc(F)cc(F)c2Cl)[C@@H]2CNCCO2)c1 [Example 48, (2S)-2-[(1S)-(2-Chloro-3,5-difluorophenoxy)(3-fluorophenyl)methyl] morpholine hydrochloride] | 6.5 | – | – |
| – | – | CCOc1ccccc1O[C@@H](c1ccccc1)[C@@H]1CNCCO1 [(2S)-2-[(1S)-(2-ethoxyphenoxy)(phenyl)methyl]morpholine, reference compound] | – | 17 | – |
| 152 | 13.6 | Cc1cccc([C@H](Oc2ccc(F)cc2Cl)[C@@H]2CNCCO2)c1 [Example 56, (2S)-2-[(1S)-(2-Chloro-4-fluorophenoxy)-m-tolyl-methyl] morpholine hydrochloride] | 35.6 | – | – |
| 127 | 4.4 | Fc1c(Cl)cccc1O[C@@H](c1ccccc1)[C@@H]1CNCCO1 [Example 80, (2S)-2-[(1S)-(3-chloro-2-fluoro-phenoxy)-phenyl-methyl]-morpholine fumarate salt] | 40 | – | – |
| 621 | 3.5 | Fc1ccc(O[C@@H](c2ccccn2)[C@@H]2CNCCO2)c(Cl)c1 [Example 105, (2S)-2-[(1S)-(2-chloro-4-fluorophenoxy)(pyridin-2-yl)methyl]morpholine fumarate] | 13.7 | – | – |
| 194 | 549 | COc1cc(F)ccc1O[C@@H](c1cccc(Cl)c1)[C@@H]1CNCCO1 [Example 52, (2S)-2-[(1S)-(3-Chlorophenyl) (4-fluoro-2-methoxyphenoxy)methyl] morpholine hydrochloride] | 7 | – | – |
| 70 | 164 | COc1cc(Cl)c(Cl)cc1O[C@@H](c1ccccc1)[C@@H]1CNCCO1 [Example 93, (2S)-2-[(1S)-(4,5-Dichloro-2-methoxyphenoxy)phenylmethyl] morpholine fumarate] | 39 | – | – |
| 171 | 20.3 | Clc1ccc(Cl)c(O[C@@H](c2ccccc2)[C@@H]2CNCCO2)c1 [Example 89, (2S)-2-[(1S)-(2,5-Dichlorophenoxy)phenylmethyl] morpholine fumarate] | 27.8 | – | – |
| 408 | 20.1 | COc1cccc([C@H](Oc2ccc(F)cc2OC)[C@@H]2CNCCO2)c1 [Example 68, (2S)-2-[(1S)-(4-Fluoro-2-methoxyphenoxy) (3-methoxyphenyl)methyl] morpholine hydrochloride] | – | – | – |
| 100 | 12.6 | COc1cc(C)ccc1O[C@@H](c1cccc(F)c1)[C@@H]1CNCCO1 [Example 79, (2S)-2-[(1S)-(3-Fluorophenyl)(2-methoxy-4-methylphenoxy)-methyl]morpholine hydrochloride] | 99.5 | – | – |
| 544 | 19.7 | COc1cc(F)ccc1O[C@@H](c1cccc(C)c1)[C@@H]1CNCCO1 [Example 57, (2S)-2-[(1S)-(4-Fluoro-2-methoxyphenoxy)-m-tolyl-methyl] morpholine hydrochloride] | – | – | – |
| 524 | 10.3 | Cc1cccc([C@H](Oc2cc(F)ccc2Cl)[C@@H]2CNCCO2)c1 [Example 59, (2S)-2-[(1S)-(2-Chloro-5-fluorophenoxy)-m-tolyl-methyl] morpholine hydrochloride] | – | – | – |
| 314 | 1.91 | Fc1cccc([C@H](Oc2c(F)cccc2Cl)[C@@H]2CNCCO2)c1 [Example 60, (2S)-2-[(1S)-(2-Chloro-6-fluorophenoxy) (3-fluorophenyl)methyl] morpholine hydrochloride] | – | – | – |
| 49.6 | 755 | Clc1cc(Cl)c(O[C@@H](c2ccccc2)[C@@H]2CNCCO2)c(Cl)c1 [Example 98, (2S)-2-[(1S)-Phenyl-(2,4,6-trichlorophenoxy)methyl] morpholine fumarate] | – | – | – |
| 652 | 14.3 | Fc1cc(F)c(O[C@@H](c2ccccc2)[C@@H]2CNCCO2)c(F)c1 [Example 86, (2S)-2-[(1S)-Phenyl-(2,4,6-trifluorophenoxy)methyl] morpholine fumarate] | – | – | – |
| 511 | 15.7 | Fc1cccc([C@H](Oc2c(F)cc(F)cc2F)[C@@H]2CNCCO2)c1 [Example 65, (2S)-2-[(1S)-(3-Fluorophenyl) (2,4,6-trifluorophenoxy)methyl] morpholine hydrochloride] | – | – | – |
| 222 | 8.9 | Fc1cc(F)c(Cl)c(O[C@@H](c2ccccc2)[C@@H]2CNCCO2)c1 [Example 83, (2S)-2-[(1S)-(2-Chloro-3,5-difluorophenoxy)phenylmethyl]morpholine fumarate] | – | – | – |
| 109 | 20.4 | COc1cc(C)ccc1O[C@@H](c1cccc(C)c1)[C@@H]1CNCCO1 [Example 55, (2S)-2-[(1S)-(2-Methoxy-4-methylphenoxy)-m-tolyl-methyl] morpholine hydrochloride] | – | – | – |
| 474 | 42.9 | COc1ccc(O[C@@H](c2cccc(C)c2)[C@@H]2CNCCO2)c(OC)c1 [Example 58, (2S)-2-[(1S)-(2,4-Dimethoxyphenoxy)-m-tolyl-methyl] morpholine hydrochloride] | – | – | – |
| 69.2 | 11.4 | COc1cc(C)ccc1O[C@@H](c1ccc(F)cc1)[C@@H]1CNCCO1 [Example 42, (2S)-2-[(1S)-(2-methoxy-4-methylphenoxy)4-fluorophenyl) methyl] morpholine hydrochloride] | – | – | – |
| 344 | 26.6 | Fc1ccc(Cl)c(O[C@@H](c2cccc(Cl)c2)[C@@H]2CNCCO2)c1 [Example 53, (2S)-2-[(1S)-(2-Chloro-5-fluorophenoxy) (3-chlorophenyl)methyl] morpholine hydrochloride] | – | – | – |
| 71.7 | 86.8 | COc1c(Cl)cccc1O[C@@H](c1ccccc1)[C@@H]1CNCCO1 [Example 92, (2S)-2-[(1S)-(3-Chloro-2-methoxyphenoxy)phenylmethyl] morpholine fumarate] | – | – | – |
| 1070 | 8 | COc1cccc(F)c1O[C@@H](c1cccc(F)c1)[C@@H]1CNCCO1 [Example 50, (2S)-2-[(1S)-(2-Fluoro-6-methoxyphenoxy)(3-fluorophenyl)methyl] morpholine hydrochloride] | – | – | – |
| 967 | 6.9 | Fc1cccc([C@H](Oc2c(F)cccc2F)[C@@H]2CNCCO2)c1 [Example 47, (2S)-2-[(1S)-(2,6-Difluorophenoxy)-(3-fluorophenyl)methyl] morpholine hydrochloride] | – | – | – |

| Compound | Ki [1, 4] [nM] | Ki [3] [nM] | inhibition in vivo at 10 mg/kg [2, 5] [%] | inhibition in vivo at 10 mg/kg ([2]; 1 h) [%] | Ki [1] [nM] |
| --- | --- | --- | --- | --- | --- |
| COc1cc(Cl)ccc1O[C@@H](c1cccc(F)c1)[C@@H]1CNCCO1 [Example 45, (2S)-2-[(1S)-(4-Chloro-2-methoxyphenoxy)(3-fluorophenyl)methyl] morpholine hydrochloride] | – | 10.5 | – | 54.6 | 30 |
